The test system of series [1] is PDLSCs. Kind of series: WST-1 viability assay, 10 min treatment. As to conditions: P3 and P7; 48 h; 0.3% H2O2, 0.02% CHX, higher ClO2 concentration (0.0025%). The series is classed as cell-based, human. The protocol: (§1) This assay is dedicated to measuring the viability of PDLSCs. In 96-well culture plates, 10,000 PDLSCs were seeded. After 24 h, samples were treated with the irrigative compounds, and final concentrations were H2O2 0.3%, CHX 0.02%, and ClO2 0.0025% and 0.00025% solutions in 4-4 parallel wells. After 10 min, all the irrigative agents were removed and the samples were washed three times with normal growth medium, simulating the diluting effect of saliva in the oral cavity during the periodontal treatments. Forty-eight hours after the treatments, the cell viability was measured by the cell proliferation reagent containing water-soluble tetrazolium salt, WST-1 [2-(4-Iodophenyl)-3-(4-nitrophenyl)-5-(2,4-disulfophenyl)-2H-tetrazolium] (Roche). This assay determines mitochondrial dehydrogenase enzyme activity resulting water-soluble cleavage product. The WST-1 reagent was used at 1:20 dilution and incubation time was 2 h at 37 °C. Absorbance was measured at 450 nm with a reference wavelength of 655 nm by a microplate reader (BIO-RAD Model 3550). Background control values were determined in wells seeded with no cells. Each value represents the average of minimum 3 parallel measurements.

The test system of series [2] is gingival fibroblasts. On the set-up: method as in PMID 10632519. The conditions noted are these: cited from earlier work.
Series [3] concerns PDLSCs. Kind of series: Impedimetry (xCELLigence), concentration-response study. Format: cell-based, human. As to conditions: 48-h incubation, 0.5 normalized CI. The protocol:
(§2) To evaluate the concentration-dependent effects of the 3 antiseptic agents (H2O2, CHX, and ClO2), 9 different dilutions of each agent were prepared with growth medium (from 3.91 × 10^−6 to 10^−3 M, by 1:2 dilution in each step). As ClO2 is photosensitive and volatile, its dilution series were made in dark Eppendorf tubes which were opened only for the inevitably required time. After a 48-h-long incubation, cell viability was assessed by WST-1 test and impedimetric measurement, respectively (see below). The […] (IC50) values corresponding to the 50% viable cells or 0.5 normalized CI were determined from the concentration-effect curves in the case of the two methods, respectively.
The effect of irrigative agents on the viability of the PDLSC cells was assessed using the xCELLigence SP System (Roche Applied Science, Indianapolis, IN, USA), which monitors the cellular events by measuring electrical impedance across interdigitating gold microelectrodes integrated on the bottom of tissue culture plates (E-plates). The detected impedance is influenced by the viability and morphology of the attached cells on the surface of the electrodes. The presence of cells due to their insulating plasma membranes constrain the electrical current and lead to an increase in the electrode impedance. The impedance depends on the number of the attached cells and on the dimensional change of the attached cells on the electrodes. More cells attached to the electrode or spreading cause a larger increase in the impedance. The change in impedances represented as “cell index” (CI) which is a relative and dimensionless value. Briefly, the experimental protocol was as follows: to register the background value, 100 μL of culture medium was added to each well and impedance was recorded for 1 h to gain constant background curves of impedance. […] The viability of the PDLSC was monitored for 96 h. Normalized impedance to the control calculated by the integrated software (RTCA 1.2—Roche Applied Science, Indianapolis, IN, USA) was used for the statistical evaluation. […]

Series [4] has as its system gingival fibroblasts. On the set-up: method as in PMID 1920010. As to conditions: exposure of dental root surfaces to CHX (0.12%); cited from earlier work.
In series [5] the test system is STRO-1. Description: Immunocytochemistry of stem cell marker STRO-1. Format: cell-based, human. The conditions noted are these: 48 h, 0.02% CHX, 0.0025% (1/1) ClO2. The protocol:
(§3) PDLSC cultures grown in 8 chamber slides (Nunc Lab-Tek) were treated with the antiseptic agents similar to the viability studies. After 48 h, treated and untreated cell cultures were fixed in 4% PFA in PBS for 20 min at room temperature (RT). To block non-specific binding, 5% goat serum in PBS was applied for 1 h at RT. Then cell cultures were incubated with the primary antibodies diluted 1:100 with 2.5% goat serum in PBS overnight at 4 °C. The applied primary antibodies were the following: anti-STRO-1 antibody (type mouse IgM)—a generous gift from Prof. Richard Oreffo (University of Southampton, UK); anti-CD90 (Thy-1; type mouse IgG) and the anti-CD105 (endoglin; type mouse IgM) antibodies purchased from Calbiochem and Santa Cruz Biotechnology, respectively. Goat anti-mouse IgM and IgG type secondary antibodies conjugated with Alexa Fluor 488 (Molecular Probes) were diluted with 2.5% goat serum in PBS in 1:2000 and 1:1000 respectively. The incubation time was 60 min at RT. Finally, the walls of the chambers were removed and the slides were mounted with ProLong Gold antifade reagent with DAPI (Molecular Probes). Immunocytochemically labeled cell cultures were investigated under a fluorescence microscope (Nikon Eclipse E600), the photos were taken by a Retiga 2000R digital CCD camera (QImaging), and analyzed by the Image Pro software (Media Cybernetics). Free macros for automated fluorescence analysis of image processing software FIJI/ImageJ were applied to evaluate immunostaining of stem cell markers. Each test point represents 3 × 3 reading of the samples.

Series [6] concerns PDL cells. The arrangement: method as in PMID 1507037. As to conditions: 0.2 to 2.0% CHX pretreatment of the root surface; cited from earlier work.
Series [7] has as its system equine fibroblasts. As to conditions: cited from earlier work.
For series [8], the system named is CD90. Description: Immunocytochemistry of stem cell marker CD90. The series is classed as cell-based, human. As to conditions: 48 h, 0.02% CHX, 0.0025% (1/1) ClO2. The protocol:
as §3

In series [9] the test system is PDLSCs. Kind of series: Impedimetry (xCELLigence), 10 min treatment, time course and viability. Format: cell-based, human. As to conditions: for long-term (2–120 h) effect on normalized CI / short-term (0–2 h) effect on normalized CI / viability of PDLSC cultures, impedimetry: 0.3% H2O2, 0.02% CHX; for long-term (2–120 h) effect on normalized CI / short-term (0–2 h) effect on normalized CI: 0.0025% and 0.00025% ClO2, 10 min treatment; for viability of PDLSC cultures, impedimetry: P3 and P7, 48 h. The protocol:
The effect of irrigative agents on the viability of the PDLSC cells was assessed using the xCELLigence SP System (Roche Applied Science, Indianapolis, IN, USA), which monitors the cellular events by measuring electrical impedance across interdigitating gold microelectrodes integrated on the bottom of tissue culture plates (E-plates). The detected impedance is influenced by the viability and morphology of the attached cells on the surface of the electrodes. The presence of cells due to their insulating plasma membranes constrain the electrical current and lead to an increase in the electrode impedance. The impedance depends on the number of the attached cells and on the dimensional change of the attached cells on the electrodes. More cells attached to the electrode or spreading cause a larger increase in the impedance. The change in impedances represented as “cell index” (CI) which is a relative and dimensionless value. Briefly, the experimental protocol was as follows: to register the background value, 100 μL of culture medium was added to each well and impedance was recorded for 1 h to gain constant background curves of impedance. In the following step, PDLSCs were seeded in 10^5 cells/mL density. After 24-h incubation, they were treated with the solutions of the investigated irrigative compounds (H2O2, CHX, and ClO2) for 10 min and the medium served as reference. […] Normalized impedance to the control calculated by the integrated software (RTCA 1.2—Roche Applied Science, Indianapolis, IN, USA) was used for the statistical evaluation. Each data point represents the mathematical average of three parallels.

The subject of series [10] is PDLSC cultures. Description: Morphological study, phase-contrast microscopy. Format: cell-based, human. The conditions noted are these: for cell morphology and cell number under phase-contrast microscope: 48 h after treatment, 0.3% H2O2, 0.02% CHX, 0.0025% or 0.00025% ClO2. The source says:
Cellular morphology was observed under an inverted phase-contrast microscope (Nikon TMS). Photomicrographs were taken applying a high-performance CCD camera (COHU) and the Scion image software.

Series [11] relates to CD105. Description: Immunocytochemistry of stem cell marker CD105. Format: cell-based, human. The conditions noted are these: 48 h, 0.02% CHX, 0.0025% (1/1) ClO2. The protocol:
as §3

In series [12] the test system is PDLSCs. Kind of series: WST-1 test, concentration-response study. Format: cell-based, human. The conditions noted are these: 48-h incubation, 50% viable cells. The protocol: as §2, §1
A general note: Formazan colour is commonly taken as a measure of viable cells.

The conditions of series [13]: long incubation time; cited from earlier work.

The structures appear in SMILES notation. Marks after values point to notes of the source that are not given here.

Broadly, the IC50 is the midpoint of a concentration-inhibition curve. Low readings indicate greater potency, high ones weaker potency.

As to `[H]/N=C(\N/C(=N/[H])NCCCCCCNC(=N)NC(=N)Nc1ccc(Cl)cc1)Nc1ccc(Cl)cc1` [CHX, chlorhexidine], the “viability of PDLSC cultures, WST-1” value in series [1] is “significantly deteriorating effects”. Moreover, the “low concentration shown to be toxic, reducing production of collagen and non-collagen proteins” value in series [2] is on record as 0.0001%. The IC50 in [3] (Homo sapiens, 48 h) was 36.4 µM; in series [12], 16.6 µM; in series [12] (Homo sapiens, 48 h), 29.5 µM. Also, the “subsequent attachment of gingival fibroblasts” value in series [4] is on record as “significantly inhibited”. Further, the “STRO-1 Fluo. int. [%] Control = 100%” value in [5] (P3) was 130.52* %; in series [5] (P7), 86.02%. The “attachment of PDL cells onto the root surface and their morphology” value in [6] is given as “adversely altered”. Moreover, the “concentration with 50% of survival” value in [7] is on record as 0.005%. The entries for the “CD90 Fluo. int. [%] Control = 100%” value in [8] (P3) and in series [8] (P7) were 199.23*** % and 30.98*** %, respectively. Also, the “long-term (2–120 h) effect on normalized CI” value in [9] was “retained their short-term cytotoxic effects”. Also, in series [9], the “short-term (0–2 h) effect on normalized CI” value is “rapid decrease of normalized CI profile”. In addition, the “repopulation in long-term impedimetric analysis” value in series [9] (5-day-long period after treatment) is listed as “no sign of repopulation”. The “viability of PDLSC cultures, impedimetry” value in series [9] was “significantly deteriorating effects”. The “cells killed in 5 min” value in series [9] (impedimetric results, 0.02% CHX) is reported as 50%. Besides, the “cells killed during the first 30 min” value in series [9] (impedimetric results, 0.02% CHX, ClO2 depending on the concentration applied (0.0025%, 0.00025%)) was “about 70%”. In addition, the “cell morphology and cell number under phase-contrast microscope” value in [10] was “number of cells dramatically decreased”. Moreover, the “CD105 Fluo. int. [%] Control = 100%” value in series [11] (P3) is recorded as 218.18*** %; in series [11] (P7), 104.81%.

In the case of `OO` [H2O2, hydrogen peroxide], the “viability of PDLSC cultures, WST-1” value in series [1] is “complete lack of any viable cells”. For the same molecule, in [3], inhibition was half-maximal at 327 µM (IC50). Moreover, in [13], the “concentrations at which in vitro sporicide effects are evident” value is 10–30%. In [9], the “long-term (2–120 h) effect on normalized CI” value is “retained their short-term cytotoxic effects”; the “short-term (0–2 h) effect on normalized CI” value is “rapid decrease of normalized CI profile”; the “viability of PDLSC cultures, impedimetry” value was “complete lack of any viable cells”. The “time to kill all the cells” value in series [9] (impedimetric results, 0.3% H2O2) is given as no more than 1 min. The “state of cultures at fixation for immunocytochemistry” value in series [10] (48 h after treatment with H2O2) was “all the cells were dead and detached from the slide”. For the same molecule, the “cell morphology and cell number under phase-contrast microscope” value in series [10] is reported as “number of cells dramatically decreased”. In addition, half-maximal inhibition in [12] (IC50) was put at 209 µM.

(Values after publication PMC8060220, “Comparative study of hyperpure chlorine dioxide with two other irrigants regarding the viability of periodontal ligament stem cells” (Clinical Oral Investigations, 2020).)
